Results on 100 compounds are retold here after ChEMBL document CHEMBL2095176, “GSK Tuberculosis Screening Data”.

The structures appear in SMILES notation. In brackets after ≈: the same amount, converted by molar mass.

The experiment deals with Mycobacterium tuberculosis variant bovis BCG. Briefly: microbe, parasite or virus in culture. The class given is functional.
For the compound `O=C(NNC(=O)c1ccc([N+](=O)[O-])o1)c1ccc2ccccc2c1`, the MIC90 stood at 7.2 µM (≈ 2.34 µg/mL).
In the case of `Cc1ccc(C(=O)Nc2nc(-c3ccccn3)cs2)s1`, the MIC90 is 3.7 µM (≈ 1.12 µg/mL).
The value for `O=C(Nc1nc(-c2ccccn2)cs1)c1cccc(-n2cnnn2)c1` was 8.5 µM (≈ 2.97 µg/mL); that for `O=C(c1cnn(C(=O)c2ccco2)c1)c1cc(F)ccc1O` was 4.2 µM (≈ 1.26 µg/mL); that for `FC(F)(F)c1nnc2ccc(Cl)nn12` was 6.6 µM (≈ 1.47 µg/mL).
Turning to `O=C(NC1=NCCS1)c1sc2cc(F)ccc2c1Cl`, the MIC90 was 8.2 µM (≈ 2.58 µg/mL).
Take `Nc1nc(N)c2c(Sc3ccc4ccccc4c3)cccc2n1`: the MIC90 was determined as 4.4 µM (≈ 1.4 µg/mL).
The value for `Cc1ccc(NC(=O)CCC(=O)NNC(=O)c2cccs2)cc1C` was 8.3 µM (≈ 2.87 µg/mL); that for `O=C(COc1ccccc1F)Nc1nc(-c2ccccn2)cs1` was 8.7 µM (≈ 2.87 µg/mL); that for `O=C(Cc1ccc(F)cc1)Nc1nc(-c2ccccn2)cs1` was 8.9 µM (≈ 2.79 µg/mL).
`COc1cc(CN2CCC3(C=Cc4ccccc43)CC2)cc2c1OCO2`: the MIC90 was found to be 3.1 µM (≈ 1.08 µg/mL).
The result for `Cl.O=C(c1ccco1)N(CCCn1ccnc1)c1nc2c(Cl)cccc2s1` reads 7.2 µM; that for `Fc1cccc(-c2nc(NCC3COc4ccccc4O3)no2)c1F` (stereo not given), 9.2 µM (≈ 3.18 µg/mL); that for `O=C(NNC(=O)c1cc2cc([N+](=O)[O-])ccc2s1)c1cccs1`, 9.2 µM (≈ 3.2 µg/mL).
The result for `CCOc1ccc(C(=O)Nc2cc(Cl)c3c(c2)CNCC3)cc1C(C)=O` reads 9.2 µM (≈ 3.43 µg/mL); that for `Cc1cnc(N2CCN[C@@H](Cc3ccccc3)C2)nc1Oc1ccc(-n2ccnc2)cc1.O=C(O)C(F)(F)F`, 8.1 µM; that for `CCCCc1ccc(C(=O)Nc2nccc3ccccc23)nc1`, 7.2 µM (≈ 2.2 µg/mL).
For the compound `Cc1ccc(S(=O)(=O)N2CCC(n3nnc4cc(C(F)(F)F)ccc43)CC2)cc1Cl`, the MIC90 stood at 9.3 µM (≈ 4.27 µg/mL).
The compound `NC1CCCN(c2ncnc(-c3ccc4c(c3)CCC4)n2)C1` (stereo not given) gave an MIC90 of 9.3 µM (≈ 2.75 µg/mL).
With `c1ccc(-c2ccc(CNCCn3ccnc3-c3ccccc3)cc2)cc1`, the MIC90 worked out at 9.3 µM (≈ 3.29 µg/mL).
The value for `CCOC(=O)c1csc(-c2ccccc2NC(=O)OCC2CCNCC2)n1` was 9.3 µM (≈ 3.62 µg/mL); that for `Cn1cc(-c2noc(CCNCCC(C)(C)C)n2)c2ccccc21` was 9.3 µM (≈ 3.04 µg/mL); that for `CSc1ccc(-c2nnc(NC(=O)c3cc(Cl)sc3Cl)o2)cc1` was 9.4 µM (≈ 3.63 µg/mL).
The value for `O=C(Nc1cccc2cccnc12)c1cnccn1` was 9.4 µM (≈ 2.35 µg/mL); that for `O=C(Cc1c(Cl)cccc1Cl)Nc1nc(-c2ccccn2)cs1` was 9.4 µM (≈ 3.42 µg/mL); that for `FC(F)(F)c1ccc2c(N3CCNCC3)ncc(-c3ccsc3)c2n1` was 9.4 µM (≈ 3.43 µg/mL).
The value for `Cc1ccc2c(c1)c(=O)cc(C(F)(F)F)n2CCNC(=O)c1ccccc1F` was 9.4 µM (≈ 3.69 µg/mL); that for `O=C(CCc1ccsc1)Nc1nc(-c2ccccn2)cs1` was 9.4 µM (≈ 2.96 µg/mL).
In turn, `Cc1ccc(C)c2nc(N3CCN(C)CC3)c(C#N)cc12` returned an MIC90 of 9.4 µM (≈ 2.64 µg/mL).
The result for `Cn1cc(-c2noc(CCN[C@H]3CC[C@H](C)CC3)n2)c2ccccc21` reads 9.4 µM (≈ 3.18 µg/mL); that for `Nc1cc(OCc2ccccc2)ccc1Nc1ccccc1`, 2.1 µM (≈ 0.61 µg/mL).
The value for `CC1(C)NC(N)=NC(=N)N1OCCCOc1ccc2ccccc2c1` was 9.5 µM (≈ 3.24 µg/mL); that for `CC(=O)N(C)c1ccc(Oc2ccnc(NCc3c(C)cccc3C)n2)cc1` was 9.5 µM (≈ 3.58 µg/mL).
For `CC1CC(NC(=O)c2ccc(Oc3ccccc3)cc2)CC(C)(C)C1` (stereo not given), the MIC90 came out at 9.5 µM (≈ 3.21 µg/mL).
The value for `Cc1ccc(NC(=O)c2cccc(Cl)c2F)cc1-c1ccc(C(N)=O)cc1` was 9.5 µM (≈ 3.64 µg/mL); that for `COc1ccc2sc(Nc3nc(C)n(-c4ccccc4)c(=O)n3)nc2c1` was 9.5 µM (≈ 3.47 µg/mL).
For `CCOc1ccccc1NC(=O)[C@H](Cc1ccccc1)NC(=O)c1cccs1`, the MIC90 is 9.5 µM (≈ 3.75 µg/mL).
The value for `Cc1ccc2sc(N(CCCn3ccnc3)C(=O)c3cccs3)nc2c1C` was 9.5 µM (≈ 3.77 µg/mL); that for `Cc1nc2c(C)cccn2c1C(=O)NCc1ccc2c(c1)OCO2` was 9.5 µM (≈ 3.07 µg/mL); that for `CC(C)(C)OC(=O)n1cc(CN2CCC3(CC2)OCCc2sccc23)c2ccccc21` was 9.5 µM (≈ 4.17 µg/mL).
In turn, `CC(C)N(C(=O)CSc1nc2cc(Cl)ccc2[nH]1)C(C)C` yielded an MIC90 of 9.5 µM (≈ 3.1 µg/mL).
The result for `Cc1cc(N)nc2cc(-c3ccc(CCN)cc3)ccc12` reads 9.5 µM (≈ 2.64 µg/mL).
The compound `COc1ccc2cc(C(=O)Nc3ccc(C4CCN(C)CC4)cc3)sc2c1` returned an MIC90 of 2.9 µM (≈ 1.1 µg/mL).
`c1ccc(Cc2nn3c(-c4ccccc4)nnc3s2)cc1` had an MIC90 of 8.2 µM (≈ 2.4 µg/mL).
The result for `O=C(/C=C/c1ccccc1)N1CCN(Cc2cccc(OCc3ccccc3)c2)CC1` reads 8.3 µM (≈ 3.42 µg/mL); that for `O=C(NNC(=O)c1[nH]nc2ccccc12)c1ccco1`, 8.3 µM (≈ 2.24 µg/mL).
Compound `O=C(Cn1c(SCc2ccccc2F)nc2ccncc21)Nc1ccc(Br)cc1F` registered an MIC90 of 8.3 µM (≈ 4.06 µg/mL).
The result for `CC[C@H]1CN2CC[C@@H]1C[C@H]2[C@H](O)c1cc(-c2cccnc2)nc2ccc(OC)cc12` reads 8.3 µM (≈ 3.35 µg/mL).
The result for `CC(C)c1ccc(-c2cncc(N3CCN(c4ccncc4)CC3)n2)cc1` reads 5.1 µM (≈ 1.83 µg/mL); that for `O=C(CCCSc1ccccc1)NNC(=O)c1cccs1`, 3.6 µM (≈ 1.15 µg/mL).
Take `O=C(NCCNCc1cc(-c2cncc3ccccc23)cs1)c1ccc(Cl)cc1`: the MIC90 amounted to 8.4 µM (≈ 3.54 µg/mL).
The result for `CN1CC[C@@H](Oc2cc(-c3noc(-c4ccc(Br)s4)n3)ccc2C(F)(F)F)C1` reads 8.4 µM (≈ 3.98 µg/mL); that for `CN(C)CCCC(=O)Nc1[nH]nc2cnc(-c3cncc(-c4ccccc4)c3)cc12`, 8.4 µM (≈ 3.36 µg/mL).
`CCn1c(=O)c(=O)[nH]c2cc(C(=O)Nc3ccccc3Nc3ccc(OC)cc3)ccc21` came in with an MIC90 of 0.9 µM (≈ 0.387 µg/mL).
`O=C(CCSc1ccc(Cl)cc1)Nc1nc(-c2ccccn2)cs1` gave an MIC90 of 3.9 µM (≈ 1.47 µg/mL).
The value for `CN(C)C1CCN(C(=O)c2csc(-c3cccc(Cl)c3Cl)n2)C1` (stereo not given) was 8.5 µM (≈ 3.15 µg/mL); that for `Cc1ccc(NC(=O)C2COc3ccccc3C2)cc1Cl` (stereo not given) was 8.5 µM (≈ 2.57 µg/mL).
In turn, `CN(C)CCCSc1nc(N2CCCC2)c2c(c1C#N)CCCC2` yielded an MIC90 of 8.5 µM (≈ 2.93 µg/mL).
The value for `Fc1ccc(-c2cccc3ccc(N4CCNCC4)nc23)cc1` was 8.5 µM (≈ 2.61 µg/mL); that for `N[C@H]1CC[C@H](NCc2ccc(O)c(C(=O)NCc3ccc(Cl)c(Cl)c3)c2)CC1` was 8.5 µM (≈ 3.59 µg/mL); that for `Fc1ccc(-c2nnc3sc(Cc4ccccc4)nn23)cc1` was 8.6 µM (≈ 2.67 µg/mL).
On to `COc1ccc(Nc2nc(CN3CCN(Cc4ccc(C#N)cc4)CC3)cs2)cc1`, for which the MIC90 was 8.6 µM (≈ 3.61 µg/mL).
The result for `CCc1c(C)nc(-c2cccc(C(F)(F)F)c2)nc1N1CCNCC1` reads 8.6 µM (≈ 3.01 µg/mL); that for `O=C(CCC(=O)NNC(=O)c1ccco1)NNC(=O)c1ccco1`, 8.6 µM (≈ 2.87 µg/mL).
`CN1CCC(COC(=O)c2cn(C)c3ccc(Cl)cc23)CC1` came in with an MIC90 of 8.7 µM (≈ 2.79 µg/mL).
`CN(Cc1ccccc1)c1ncc(-c2ccc(CNCC3CCCO3)cc2)cn1` (stereo not given) registered an MIC90 of 8.7 µM (≈ 3.38 µg/mL).
The compound `CCCn1nc(C(=O)N2CCN(c3ccccc3F)CC2)c2ccccc2c1=O` returned an MIC90 of 8.7 µM (≈ 3.43 µg/mL).
For `CSc1ccc(C(=O)Nc2nc(-c3ccccn3)cs2)cc1`, the MIC90 came out at 4.4 µM (≈ 1.44 µg/mL).
The value for `O=C(Nc1ccccc1-c1nc(C2CCC2)cs1)OCC1CCNCC1.O=C(O)C(F)(F)F` was 6.4 µM; that for `COc1ccc(-c2cccc(NC(=O)NC3CCCCC3)c2)cn1` was 8.8 µM (≈ 2.86 µg/mL); that for `CCn1c(-c2ccccc2)nc2c(-c3ccc(C)cc3)ncc(OCCCN)c21` was 8.8 µM (≈ 3.4 µg/mL).
`c1ccc(CNc2ncc(-c3ccc(CNCC4CCCO4)cc3)cn2)cc1` (stereo not given) yielded an MIC90 of 8.8 µM (≈ 3.3 µg/mL).
The value for `CCCCNC(=O)N1CCN(Cc2cccc3ccccc23)CC1` was 8.8 µM (≈ 2.86 µg/mL); that for `Cc1ccc(NC(=O)c2nc(N3CCCN(C)CC3)ccc2Cl)cc1F` was 8.8 µM (≈ 3.32 µg/mL).
The result for `Cc1cc(S(=O)(=O)c2ccccc2)cc2c(Nc3ccc(N4CCOCC4)cc3)c(C(N)=O)cnc12` reads 8.8 µM (≈ 4.42 µg/mL).
The result for `COc1ccc(OC)c(S(=O)(=O)Nc2ccc(Nc3ccccc3)cc2OC)c1` reads 8.8 µM (≈ 3.65 µg/mL).
In the case of `Cc1cc(C)c2cc(CN(Cc3cccnc3)C(=O)c3ccccc3)c(Cl)nc2c1`, the MIC90 was determined as 8.8 µM (≈ 3.66 µg/mL).
As to `CNC(=O)c1cc(Nc2ncc(F)c(N(C)c3ccc4c(C)[nH]nc4c3)n2)ccc1OCC1CCNCC1`, the MIC90 was 8.8 µM (≈ 4.56 µg/mL).
The result for `Cc1ccc(N2C(=O)NC(=O)C(=Cc3ccc[nH]3)C2=O)cc1` reads 8.8 µM (≈ 2.6 µg/mL).
In the case of `CCc1nc2ccccc2n1CC(O)COc1cc(C)ccc1Cl` (stereo not given), the MIC90 stood at 9.7 µM (≈ 3.34 µg/mL).
The value for `Cc1cc(Oc2cccc(CN3CCCC3)c2)nc(NCCc2ccccc2)n1` was 8.9 µM (≈ 3.46 µg/mL); that for `Cc1cc(C)c2nc(N3CCN(C)CC3)cc(C)c2c1` was 8.9 µM (≈ 2.4 µg/mL); that for `CC(C)n1cc(CN2CCCC(C(=O)c3ccc(-c4ccccc4)cc3)C2)cn1` (stereo not given) was 8.9 µM (≈ 3.45 µg/mL).
As for `CC1CN(Cc2cccc(C(=O)NCc3ccc(F)c(-c4cccc(CN5CCN[C@@H](C)C5)c4)c3)c2)C(C)CN1` (stereo not given in full), the MIC90 turned out to be 8.9 µM (≈ 4.84 µg/mL).
The value for `O=C(Nc1nnc(-c2cc(Cl)ccc2Cl)o1)c1ccc(Br)s1` was 8.9 µM (≈ 3.73 µg/mL).
The value for `N#Cc1nc(-c2ccccc2)oc1S(=O)(=O)c1ccc(Cl)cc1` was 3.6 µM (≈ 1.24 µg/mL).
`CC(=O)NCCn1c(Sc2ccnc(N3CCN(c4ccncc4)CC3)n2)nnc1-c1ccccc1` returned an MIC90 of 4 µM (≈ 2.01 µg/mL).
Consider `CCOc1ccccc1NC(=O)C(Cc1ccccc1)NC(=O)c1cccs1` (stereo not given), for which the MIC90 amounted to 9 µM (≈ 3.55 µg/mL).
Compound `Cc1cc(C)c2nc3c(cc2c1)CN(Cc1ccco1)C(=O)O3` returned an MIC90 of 9 µM (≈ 2.78 µg/mL).
The result for `O=C(NC1CCN(Cc2ccsc2)C1)c1sccc1-c1cccc(Cl)c1` (stereo not given) reads 9 µM (≈ 3.63 µg/mL); that for `Cc1nc2ccccn2c1C(=O)NCc1cccs1`, 3.9 µM (≈ 1.06 µg/mL); that for `CN1CCN(c2cc(-c3ccncc3)nc(-c3ccccc3)n2)CC1`, 8.5 µM (≈ 2.82 µg/mL).
Turning to `CSc1ccc(CC(=O)Nc2nc(-c3ccccn3)cs2)cc1`, the MIC90 was found to be 9.1 µM (≈ 3.11 µg/mL).
For `COc1ccc(CNC(=O)c2cnn3c2NC(c2ccc(OC)cc2)CC3C(F)(F)F)cc1` (stereo not given), the MIC90 worked out at 9.1 µM (≈ 4.19 µg/mL).
Consider `CCN(Cc1ccc(Cl)s1)C(=O)CSc1nc(NC)c2ccccc2n1`, for which the MIC90 came out at 9.1 µM (≈ 3.7 µg/mL).
The value for `c1ccc2nc(CN3CCC4(CC3)OCCc3sccc34)ccc2c1` was 9.1 µM (≈ 3.19 µg/mL); that for `Cc1ccc(O)cc1Nc1ccnc2ccc(-c3cccc(CNCCN(C)C)c3)cc12` was 9.1 µM (≈ 3.88 µg/mL).
`O=C(Nc1ccc(N2CCNCC2)cc1)c1ccn2ncc(-c3cccc(Cl)c3)c2n1` came in with an MIC90 of 8.5 µM (≈ 3.68 µg/mL).
The compound `c1cncc(NCc2ccc(-c3cc4ccncc4cc3OC3CCNCC3)s2)c1` had an MIC90 of 8.3 µM (≈ 3.46 µg/mL).
Turning to `COc1ccc2sc(Nc3nc(-c4ccccn4)cs3)nc2c1`, the MIC90 stood at 3.5 µM (≈ 1.19 µg/mL).
